The values below come from PMC5740381 (Antimicrobial Agents and Chemotherapy, 2017).

In assay [1] the test system is HCV subgenomic stable replicons containing proteases from genotypes 1 to 6. As to the kind of experiment: Stable HCV replicon assay, several genotypes. The following applies: Hepatitis C virus, Huh-7, read-out: EC50, range over stable replicons. It is filed as cell-based. The source says:
Five of these nine cell lines have been described previously, including those transfected with genotypes 1a H77, 1b Con1, 3a, 4a, and 6a ([28]). […] The genotype 2b and 6e NS3 sequences were each synthetically constructed based on a consensus sequence derived from the alignment of 15 genotype 2b and 4 genotype 6e sequences, respectively. All replicon constructs were bicistronic subgenomic replicons similar to those described by Bartenschlager and coworkers, and the replicon cell lines were generated by introducing these constructs into cells of an Huh-7 human hepatoma-derived cell line ([50]). The inhibitory effect of the PIs on HCV replication in replicon cells was determined in Dulbecco's modified Eagle medium containing 5% fetal bovine serum with or without 40% human plasma (Bioreclamation, Westbury, NY). The EC50s were determined using nonlinear regression curve fitting as described previously ([33]).
A general note: Replicon systems follow genome replication, usually without infectious particles.

For assay [2], the system named is HCV replicons with genotype 1a patient proteases. Description: Transient replicon assay with proteases from HCV-infected patients. It is filed as cell-based. The following applies: Hepatitis C virus. The source says:
(§1) […]. Each of the NS3 gene sequences from genotypes 1, 2, and 4, with the exception of two genotype 2b sequences, was derived from serum or plasma from an HCV-infected patient by bulk PCR amplification, producing a population of sequences representing the viral quasispecies. Two genotype 2b sequences were synthesized based on the consensus sequences of the respective samples. One genotype 3a sequence was synthesized based on a consensus sequence from the sequences available in the Los Alamos HCV sequence database, and another genotype 3a sequence was a clonal sequence derived from a patient sample. The genotype 5a sequence (strain SA13) was synthesized based on the published sequence of the HCV isolate ([48]).
(§2) Transient replicons containing NS3 from clinical samples from HCV genotype 1a- and 1b-infected patients were described previously ([28]). For the transient replicons containing NS3/4A from samples from genotype 3a-infected patients, the first 251 amino acids of NS3 and the region encoding NS4A amino acids 21 to 32 (numbered relative to the NS4A coding region) from these HCV samples were cloned to replace the corresponding residues from the backbone of a genotype 1b Con1 shuttle vector. A genotype 1b Con1 transient replicon shuttle vector was also used to clone the region encoding the first 251 amino acids of NS3 from samples from genotype 4a- or 4d-infected patients in place of the corresponding region from HCV genotype 1b Con1.
(§3) For the analysis of NS3 sequences from patients, we defined a polymorphism to be an amino acid difference in the sequence of a baseline sample relative to the sequence of the appropriate HCV subtype reference sequence: genotype 1a H77 (GenBank accession number NC_004102), genotype 1b Con1 (GenBank accession number AJ238799), genotype 2a JFH-1 (GenBank accession number AB047639), genotype 2b HC-J8 (GenBank accession number D10988), genotype 3a S52 (GenBank accession number GU814263), genotype 4a ED43 (GenBank accession number GU814265), genotype 4d QC382 (GenBank accession number FJ462437), and genotype 5a SA13 (GenBank accession number AF064490). Polymorphisms were assessed at the following NS3 amino acid positions that are associated with resistance to the HCV PI class: 36, 43, 54, 55, 56, 80, 122, 155, 156, and 168. All DNA sequencing was performed by the Sanger sequencing method.

For assay [3], the system named is HCV replicons with genotype 1b patient proteases. The description is as above. It is filed as cell-based. The following applies: Hepatitis C virus, subtype 1b, no polymorphism, 9 samples.
Excerpt: as §1, §2, §3

The test system of assay [4] is HCV replicons with genotype 3a patient proteases. The assay is described as above. It is filed as cell-based. The following applies: Hepatitis C virus, subtype 3a, no polymorphism, 2 samples.
Excerpt: as §1, §2, §3

The test system of assay [5] is HCV replicons with genotype 4d patient proteases. The description is as above. It is filed as cell-based. The following applies: Hepatitis C virus, 96 h, subtype 4d, no polymorphism, 3 samples.
Excerpt: as §1, §2, §3

Assay [6] has as its system HCV genotype 2a replicon cells. As to the kind of experiment: Drug-resistant colony selection in replicon cells. It is filed as cell-based, Hepatitis C virus. The source says: (§4) . After approximately 3 weeks of treatment, the surviving replicon colonies in one plate for each selection condition were stained with crystal violet and counted, whereas approximately 20 to 30 colonies in a replicate plate or most of the colonies, if less than 20 colonies survived the selection, were picked and further expanded for genotyping. The expanded colonies were lysed in CellsDirect lysis buffer (Invitrogen, MA), and the NS3-coding region from each colony was amplified by reverse transcription-PCR and sequenced. For genotype 1a, 1b, 2a, and 5a colonies, the full-length NS3 sequence was determined, whereas for colonies of the chimeric replicon containing the N-terminal region of NS3 from genotype 2b, 3a, 4a, or 6a, the sequence encoding the NS3 N-terminal region was determined. We defined a substitution in a replicon to be an amino acid difference in a sequence from a posttreatment sample relative to the sequence of the corresponding untreated sample. For resistance selection studies, NS3 substitutions detected at the following amino acid positions associated with resistance to the HCV PI class in >2 colonies in each replicon selection are reported: 36, 43, 54, 55, 56, 80, 122, 155, 156, and 168. In addition, substitutions detected at other amino acid positions in the NS3 protease domain in >2 colonies in each replicon selection are also reported.

For assay [7], the system named is HCV genotype 2b replicon cells. Description: Drug-resistant colony selection in replicon cells. It is filed as cell-based, Hepatitis C virus.
Excerpt: as §4

In assay [8] the test system is HCV genotype 3a replicon cells. Description: Drug-resistant colony selection in replicon cells. It is filed as cell-based, Hepatitis C virus.
Excerpt: as §4

Assay [9] has as its system HCV genotype 4a replicon cells. Description: Drug-resistant colony selection in replicon cells. It is filed as cell-based, Hepatitis C virus.
Excerpt: as §4

Assay [10] concerns HCV genotype 6a replicon cells. Description: Drug-resistant colony selection in replicon cells. It is filed as cell-based, Hepatitis C virus.
Excerpt: as §4

As usually defined, the EC50 is the concentration giving half of the maximal effect.

SMILES strings stand for the structures. Like-named read-outs stand apart in the source and are kept apart here. Bounds are passed on as bounds.

Consider `CC(C)(C)[C@@H]1NC(=O)O[C@@H]2CCC[C@H]2OC/C=C/C(F)(F)c2nc3ccccc3nc2O[C@@H]2C[C@@H](C(=O)N[C@]3(C(=O)NS(=O)(=O)C4(C)CC4)C[C@H]3C(F)F)N(C2)C1=O` [Glecaprevir, (3aR,7S,10S,12R,21E,24aR)-7-tert-butyl-N-[(1R,2R)-2-(difluoromethyl)-1-{[(1-methylcyclopropyl)sulfonyl]carbamoyl}cyclopropyl]-20,20-difluoro-5,8-dioxo-2,3,3a,5,6,7,8,11,12,20,23,24a-dodecahydro-1H,10H-9,12-methanocyclopenta[18,19][1,10,17,3,6]trioxadiazacyclononadecino[11,12-b]quinoxaline-10-carboxamide], for which the EC50 in assay [1] was 210 to 4600 pM; in assay [2] (all genotype 1a clinical samples, read-out: Median EC50) it was 80 pM; in [2] (subtype 1a, Q80K, 5 samples, read-out: EC50 Median), 90 pM; in assay [2] (subtype 1a, Q80K, 5 samples, read-out: EC50 Range), 70 to 100 pM; in assay [2] (subtype 1a, Q80N, 1 sample, read-out: EC50 Median) it was 90 pM; in assay [2] (subtype 1a, no NS3 polymorphism, 5 samples, read-out: EC50 Median), 60 pM. For the same molecule, the EC50 is 50 to 120 pM in assay [2] (subtype 1a, no NS3 polymorphism, 5 samples, read-out: EC50 Range); 290 pM in assay [3] (read-out: EC50 Median); 200 to 680 pM in [3] (read-out: EC50 Range); 2300 pM in [4] (read-out: EC50 Median); 710 to 3800 pM in assay [4] (read-out: EC50 Range); 170 pM in assay [5] (read-out: EC50 Median). Also, the EC50 in [5] (read-out: EC50 Range) was in the range of 130 to 250 pM. In addition, the Colony survival in [6] (10× EC50) was more than 0.05%; in assay [6] (100× EC50), more than 0.05%; in assay [7] (10× EC50), more than 0.05%; in [7] (100× EC50), more than 0.05%; in assay [8] (10× EC50, 1 × 10^4 input cells), 0.1%; in assay [8] (100× EC50), 0.0003%. The Colony survival in [9] (10× EC50) was 0.0015%; in assay [9] (100× EC50), 0.0018%; in [10] (10× EC50), 0.018%; in assay [10] (100× EC50), 0%.
